Measurements from patent US11203610B2, “2′3′ cyclic dinucleotides with phosphonate bond activating the sting adaptor protein” (INSTITUTE OF ORGANIC CHEMISTRY AND BIOCHEMISTRY ASCR, V.V.I., priority 2017, dated 2021).

Experiments:
WT STING [1] = molecular target: T1, WT STING (Homo sapiens, UniProt Q86WV6, H232R); assay: Differential Scanning Fluorimetry with WT STING; assay type: binding; design: truncated human WT STING or AQ STING (amino acid residues 140-343); 8xHis (N, cleaved yes); SUMO (N, cleaved yes); made in house; host or cells: E. coli Rosetta-gami B (DE3); conditions: thermal shift vs STING apoprotein; 150 μM CDN; 0.1 mg/ml truncated human WT STING; SYPRO Orange; read-out: DSF ΔTm (° C.) WT STING
Target sequence in this assay (Q86WV6 140-343 H232R): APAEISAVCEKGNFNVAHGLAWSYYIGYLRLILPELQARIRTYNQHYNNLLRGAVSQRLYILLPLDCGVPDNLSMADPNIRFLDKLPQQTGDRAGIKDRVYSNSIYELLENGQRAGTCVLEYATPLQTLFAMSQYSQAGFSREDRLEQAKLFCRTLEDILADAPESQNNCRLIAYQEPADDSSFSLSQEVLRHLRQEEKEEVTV

WT STING [2] = molecular target: T1, WT STING; assay: Digitonin assay using 293T wtSTING-FL reporter cells; assay type: cell-based; conditions: 293T wtSTING-FL cells; 30 minutes in Digitonin buffer, then 5 hours; ISRE firefly luciferase reporter; 8-point dose-response curve; read-out: Digitonin assay EC50 (μmol · l^−1) WT STING
Target sequence in this assay (Q86WV6 whole entry H232R, the tested form may be a part): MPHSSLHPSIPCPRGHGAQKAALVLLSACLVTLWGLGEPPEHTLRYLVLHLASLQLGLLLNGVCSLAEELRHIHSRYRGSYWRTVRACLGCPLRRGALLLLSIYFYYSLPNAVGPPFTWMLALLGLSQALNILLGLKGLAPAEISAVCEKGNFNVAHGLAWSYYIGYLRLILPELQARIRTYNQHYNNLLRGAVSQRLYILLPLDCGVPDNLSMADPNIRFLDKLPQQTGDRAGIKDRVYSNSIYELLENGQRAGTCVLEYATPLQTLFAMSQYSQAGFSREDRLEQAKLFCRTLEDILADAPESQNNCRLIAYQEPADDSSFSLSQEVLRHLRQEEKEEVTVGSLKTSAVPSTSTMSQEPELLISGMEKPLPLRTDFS

AQ STING (G230A-R293Q) = molecular target: T2, AQ STING (G230A-R293Q) (Homo sapiens, UniProt Q86WV6, G230A/H232R/R293Q); assay: Differential Scanning Fluorimetry with AQ STING; assay type: binding; conditions: thermal shift vs STING apoprotein; 150 μM CDN; 0.1 mg/ml truncated human AQ STING; SYPRO Orange; read-out: DSF ΔTm (° C.) AQ STING
T2 construct: truncated human WT STING or AQ STING (amino acid residues 140-343); 8xHis (N, cleaved yes); SUMO (N, cleaved yes); made in house; host or cells: E. coli Rosetta-gami B (DE3)
T2 sequence (Q86WV6 140-343 G230A/H232R/R293Q): as the sequence (Q86WV6 140-343 H232R) above, with G91A, R154Q counted along it

ΔTm at 150 µM (WT STING [1]) [°C]	EC50 (WT STING [2]) [nM]	ΔTm at 150 µM (AQ STING (G230A-R293Q)) [°C]	SMILES
16	50	22.9	Nc1nc2c(nnn2[C@@H]2O[C@@H]3OCP(=O)(O)O[C@H]4[C@H](O)[C@H](n5cnc6c(N)ncnc65)O[C@@H]4COP(=O)(O)O[C@@H]2[C@@H]3O)c(=O)[nH]1 [Compound 62, (1R,6R,8R,9S,10S,15R,17R,18S)-17-{5-amino-7-oxo-3H,6H,7H-[1,2,3]triazolo[4,5-d]pyrimidin-3-yl}-8-(6-amino-9H-purin-9-yl)-3,9,12,18-tetrahydroxy-2,4,7,11,14,16-hexaoxa-3λ^5,12λ^5-diphosphatricyclo[13.2.1.0^6,10]octadecane-3,12-dione]
19.5	8	26.4	Nc1nc2c(nnn2[C@@H]2O[C@@H]3OCP(=O)(O)OC4C(F)[C@H](n5cnc6c(N)ncnc65)O[C@@H]4COP(=O)(O)OC2C3O)c(=O)[nH]1 (stereo partly drawn) [Compound 63, (6R,8R,15R,17R)-17-{5-amino-7-oxo-3H,6H,7H-[1,2,3]triazolo[4,5-d]pyrimidin-3-yl}-8-(6-amino-9H-purin-9-yl)-9-fluoro-3,12,18-trihydroxy-2,4,7,11,14,16-hexaoxa-3λ^5,12λ^5-diphosphatricyclo[13.2.1.0^6,10]octadecane-3,12-dione]
